Test results taken from patent US7332495B2 (priority 2002, dated 2008).
Structures can show the parent of a compound that is named as a salt.

Tests used:
Kunming mice [1] = assay: Mice writhing model (acetic acid); assay type: in vivo; settings: i.p. 20 mg/Kg, acetic acid 0.7% i.p. after 30 minutes, writhes in 5 minutes; for inhibition in vivo at 20 mg/kg: Mus musculus, ip, read-out: Analgesia (inhibition ratio of writhing)
Experimental: (§1) Kunming mice were used, with a male-female ratio of 50-50%. The test compound is administered i.p. (20 mg/Kg body weight) to the test groups, and physiological saline is administered P.O. (20 ml/Kg body weight) to the control group. After 30 minutes, acetic acid (0.7%, […] i.p.) was injected and the number of writhes was observed during a 5-minute period after acetic acid administration. The inhibition ratio of the writhing threshold was calculated. The alternating current tube is used to record the spontaneous activities for measuring sedation.
Two species of animals (mice and rats) and four types of pain testing models (i.p. 0.7% acetic acid, s.c. 5% formalin, hot plate 55° C., focused radiant heat) were used.

Kunming mice [2] = assay: Sedation: spontaneous activities recorded with alternating current tube; assay type: in vivo; settings: i.p. 20 mg/Kg, spontaneous activities; for inhibition in vivo at 20 mg/kg: Mus musculus, ip
Experimental: as §1, with “The test compound is administered i.p. (20 mg/Kg body weight) to the test groups, and physiological saline is administered P.O. (20 ml/Kg body weight) to the control group.” left out

CC(C(=O)c1ccccc1)N1CCN(Cc2ccc(Cl)cc2)CC1 (centres unmarked) (as salt: hydrochloride)
melting point: 260 to 262 °C

COc1ccc2cc(C(=O)C(C)N3CCN(Cc4ccccc4)CC3)ccc2c1Cl (centres unmarked) (as salt: hydrochloride)
melting point: 252 to 253 °C (dec.)

COc1ccc2cc(C(=O)C(C)N3CCN(Cc4ccc5c(c4)OCO5)CC3)ccc2c1Cl (centres unmarked) (as salt: hydrochloride)
melting point: 230 to 232 °C

COc1ccc2cc(C(=O)C(C)N3CCN(Cc4ccc(N)cc4)CC3)ccc2c1Cl (centres unmarked) (as salt: hydrochloride)
melting point: 206 to 208 °C

COc1cc(CN2CCN(C(C)C(=O)c3ccc4c(Cl)c(OC)ccc4c3)CC2)cc(OC)c1OC (centres unmarked) (as salt: hydrochloride)
melting point: 219 to 222 °C

O=C(CN1CCN(Cc2ccccc2)CC1)c1ccccc1 (as salt: hydrochloride) [IV-1, N^1-benzyl-N^4-phenacyl piperazine]
melting point: 238 to 239 °C

O=C(CN1CCN(Cc2ccc(Cl)cc2)CC1)c1ccccc1 (as salt: hydrochloride) [IV-3, N^1-(4-chlorobenzyl)-N^4-phenacyl piperazine]
melting point: 256 to 258 °C

O=C(CN1CCN(Cc2ccc([N+](=O)[O-])cc2)CC1)c1ccccc1 (as salt: hydrochloride) [IV-4, N^1-(4-nitrobenzyl)-N^4-phenacyl piperazine]
melting point: 236 to 238 °C

O=C(CN1CCN(Cc2ccccc2)CC1)c1ccc(Cl)cc1 (as salt: hydrochloride) [IV-6, N^1-benzyl-N^4-(4-chlorophenacyl)piperazine]
melting point: 231 to 233 °C

O=C(CN1CCN(Cc2ccccc2)CC1)c1ccc2ccccc2c1 (as salt: hydrochloride) [IV-7, N^1-benzyl-N^4-(2-naphthoylmethyl)piperazine]
melting point: 241 °C (dec.)

COc1ccc(C(=O)CN2CCN(Cc3ccccc3)CC2)cc1 (as salt: hydrochloride) [IV-8, N^1-benzyl-N^4-(4-methoxyphenacyl)piperazine]
melting point: 228 to 230 °C

O=C(CN1CCN(Cc2ccccc2)CC1)c1ccc([N+](=O)[O-])cc1 (as salt: hydrochloride) [IV-9, N^1-benzyl-N^4-(4-nitrophenacyl)piperazine]
melting point: 236 to 238 °C

O=C(CN1CCN(Cc2ccccc2)CC1)c1ccccc1 [IV-1, N^1-benzyl-N^4-phenacyl piperazine]
inhibition in vivo at 20 mg/kg (Kunming mice [1]): 68.2% | inhibition in vivo at 20 mg/kg (Kunming mice [2]): 65.6%

O=C(CN1CCN(Cc2ccc(Cl)cc2)CC1)c1ccccc1 [IV-3, N^1-(4-chlorobenzyl)-N^4-phenacyl piperazine]
inhibition in vivo at 20 mg/kg (Kunming mice [1]): 56.6% | inhibition in vivo at 20 mg/kg (Kunming mice [2]): 70.8%

O=C(CN1CCN(Cc2ccc([N+](=O)[O-])cc2)CC1)c1ccccc1 [IV-4, N^1-(4-nitrobenzyl)-N^4-phenacyl piperazine]
inhibition in vivo at 20 mg/kg (Kunming mice [1]): 93.2% | inhibition in vivo at 20 mg/kg (Kunming mice [2]): 39.6%

CCOC(=O)C(c1ccccc1)N1CCN(CC(=O)c2ccccc2)CC1 (centres unmarked) [IV-5, N^1-[(1-ethoxy-oxo-methyl)benzyl]-N^4-phenacyl piperazine]
Analgesia (inhibition ratio of writhing) (Kunming mice [1]): 14% | Sedation (Kunming mice [2]): 44%

O=C(CN1CCN(Cc2ccccc2)CC1)c1ccc(Cl)cc1 [IV-6, N^1-benzyl-N^4-(4-chlorophenacyl)piperazine]
inhibition in vivo at 20 mg/kg (Kunming mice [1]): 43% | inhibition in vivo at 20 mg/kg (Kunming mice [2]): 73%

O=C(CN1CCN(Cc2ccccc2)CC1)c1ccc2ccccc2c1 [IV-7, N^1-benzyl-N^4-(2-naphthoylmethyl)piperazine]
inhibition in vivo at 20 mg/kg (Kunming mice [1]): 25% | inhibition in vivo at 20 mg/kg (Kunming mice [2]): 43%

COc1ccc(C(=O)CN2CCN(Cc3ccccc3)CC2)cc1 [IV-8, N^1-benzyl-N^4-(4-methoxyphenacyl)piperazine]
inhibition in vivo at 20 mg/kg (Kunming mice [1]): 39% | inhibition in vivo at 20 mg/kg (Kunming mice [2]): 64%

O=C(CN1CCN(Cc2ccccc2)CC1)c1ccc([N+](=O)[O-])cc1 [IV-9, N^1-benzyl-N^4-(4-nitrophenacyl)piperazine]
inhibition in vivo at 20 mg/kg (Kunming mice [1]): 74% | inhibition in vivo at 20 mg/kg (Kunming mice [2]): 32%

O=C(CN1CCN(Cc2cccnc2)CC1)c1ccccc1 [IV-11, N^1-(3-pyridylmethyl)-N^4-phenacyl piperazine]
inhibition in vivo at 20 mg/kg (Kunming mice [1]): 86% | inhibition in vivo at 20 mg/kg (Kunming mice [2]): 91%

CC(C(=O)c1ccccc1)N1CCN(Cc2ccc(N)cc2)CC1 (centres unmarked) [IV-13, N^1-(4-aminobenzyl)-N^4-(1-benzoylethyl)piperazine]
inhibition in vivo at 20 mg/kg (Kunming mice [1]): 100% | inhibition in vivo at 20 mg/kg (Kunming mice [2]): 86%

COc1ccc(OC)c(CN2CCN(CC(=O)c3ccccc3)CC2)c1 [IV-15, N^1-(2,5-dimethoxybenzyl)-N^4-phenacyl piperazine]
inhibition in vivo at 20 mg/kg (Kunming mice [1]): 80% | inhibition in vivo at 20 mg/kg (Kunming mice [2]): 93%

Nc1ccc(C(=O)CN2CCN(Cc3ccccc3)CC2)cc1 [IV-16, N^1-benzyl-N^4-(4-aminophenacyl)piperazine]
inhibition in vivo at 20 mg/kg (Kunming mice [1]): 63% | inhibition in vivo at 20 mg/kg (Kunming mice [2]): 51%

O=C(CCN1CCN(Cc2ccccc2)CC1)c1ccccc1 [IV-17, N^1-benzyl-N^4-(2-benzoylethyl)piperazine]
inhibition in vivo at 20 mg/kg (Kunming mice [1]): 45% | inhibition in vivo at 20 mg/kg (Kunming mice [2]): 75%

CC(=O)Nc1ccc(C(=O)CN2CCN(Cc3ccc([N+](=O)[O-])cc3)CC2)cc1 [IV-18, N^1-(4-nitrobenzyl)-N^4-[(4-acetamido)phenacyl]piperazine]
inhibition in vivo at 20 mg/kg (Kunming mice [1]): 64% | inhibition in vivo at 20 mg/kg (Kunming mice [2]): 65%

O=C(CN1CCN(Cc2ccc(F)cc2)CC1)c1ccc(Cl)cc1 [IV-20, N^1-(4-fluorobenzyl)-N^4-(4-chlorophenacyl)piperazine]
inhibition in vivo at 20 mg/kg (Kunming mice [1]): 45% | inhibition in vivo at 20 mg/kg (Kunming mice [2]): 60%

COc1ccc(C(=O)CN2CCN(CCC(O)c3ccccc3)CC2)cc1 (centres unmarked) [IV-22, N^1-(3-phenylpropyl-3-ol)-N^4-(4-methoxyphenacyl)piperazine]
Analgesia (inhibition ratio of writhing) (Kunming mice [1]): 100% | Sedation (Kunming mice [2]): 84%

COc1ccc([N+](=O)[O-])cc1CN1CCN(CC(=O)c2ccccc2)CC1 [IV-23, N^1-(2-methoxy-5-nitrobenzyl)-N^4-phenacyl piperazine]
inhibition in vivo at 20 mg/kg (Kunming mice [1]): 87% | inhibition in vivo at 20 mg/kg (Kunming mice [2]): 96%

CC(c1ccc(F)cc1)N1CCN(CC(=O)c2ccccc2)CC1 (centres unmarked) [IV-24, N^1-[1-(4-fluorophenyl)ethyl]-N^4-phenacyl piperazine]
inhibition in vivo at 20 mg/kg (Kunming mice [1]): 64% | inhibition in vivo at 20 mg/kg (Kunming mice [2]): 47%

COc1ccc(CN2CCN(C(C)C(=O)c3ccc4c(Cl)c(OC)ccc4c3)CC2)cc1 (centres unmarked) [IV-31, N^1-(4-methoxybenzyl)-N^4-[1-(5-chloro-6-methoxy-2-naphthoyl)ethyl]piperazine]
inhibition in vivo at 20 mg/kg (Kunming mice [1]): 45% | inhibition in vivo at 20 mg/kg (Kunming mice [2]): 7%

C[C@H](c1ccccc1)N1CCN(CC(=O)c2ccccc2)CC1 [IV-38, N^1—(R-1-phenylethyl)-N^4-phenacyl piperazine]
inhibition in vivo at 20 mg/kg (Kunming mice [1]): 51% | inhibition in vivo at 20 mg/kg (Kunming mice [2]): 99%

C[C@@H](c1ccccc1)N1CCN(CC(=O)c2ccccc2)CC1 [IV-39, N^1-(S-1-phenylethyl)-N^4-phenacyl piperazine]
Analgesia (inhibition ratio of writhing) (Kunming mice [1]): 42% | Sedation (Kunming mice [2]): 35%

Cc1ccc(C(=O)CN2CCN([C@H](C)c3ccccc3)CC2)cc1 [IV-41, N^1—(R-1-phenylethyl)-N^4-(4-methylphenacyl)piperazine]
inhibition in vivo at 20 mg/kg (Kunming mice [1]): 60% | inhibition in vivo at 20 mg/kg (Kunming mice [2]): 72%

Cc1ccc(C(=O)CN2CCN([C@@H](C)c3ccccc3)CC2)cc1 [IV-42, N^1-(S-1-phenylethyl)-N^4-(4-methylphenacyl)piperazine]
Analgesia (inhibition ratio of writhing) (Kunming mice [1]): 44% | Sedation (Kunming mice [2]): 0%

COc1ccc2cc(C(=O)C(C)N3CCN(C(C)c4ccccc4)CC3)ccc2c1Cl (centres unmarked) [IV-43, N^1-(1-phenylethyl)-N^4-[1-(5-chloro-6-methoxy-2-naphthoyl)ethyl]piperazine]
inhibition in vivo at 20 mg/kg (Kunming mice [1]): 42% | inhibition in vivo at 20 mg/kg (Kunming mice [2]): 4%

CC(C(=O)c1ccccc1)N1CCN(Cc2ccc([N+](=O)[O-])cc2)CC1 (centres unmarked) [IV-47, N^1-(4-nitrobenzyl)-N^4-(1-benzoylethyl)piperazine]
inhibition in vivo at 20 mg/kg (Kunming mice [1]): 28.8% | inhibition in vivo at 20 mg/kg (Kunming mice [2]): 26.4%

CC(=O)Nc1ccc(C(=O)CN2CCN(Cc3ccccc3)CC2)cc1 [IV-55, N^1-benzyl-N^4-(4-acetamidophenacyl)piperazine]
inhibition in vivo at 20 mg/kg (Kunming mice [1]): 21% | inhibition in vivo at 20 mg/kg (Kunming mice [2]): 52%

O=C(CN1CCN(Cc2cccc3ccccc23)CC1)c1ccccc1 [IV-58, N^1-(1-naphthalenylmethyl)-N^4-phenacyl piperazine]
Analgesia (inhibition ratio of writhing) (Kunming mice [1]): 49% | Sedation (Kunming mice [2]): 32%

O=C(CN1CCN(Cc2ccc3ccccc3c2)CC1)c1ccccc1 [IV-59, N^1-(2-naphthalenylmethyl)-N^4-phenacyl piperazine]
inhibition in vivo at 20 mg/kg (Kunming mice [1]): 45% | inhibition in vivo at 20 mg/kg (Kunming mice [2]): 0%

CC(c1ccc([N+](=O)[O-])cc1)N1CCN(CC(=O)c2ccccc2)CC1 (centres unmarked) [IV-60, N^1-[1-(4-nitrophenyl)ethyl]-N^4-phenacyl piperazine]
inhibition in vivo at 20 mg/kg (Kunming mice [1]): 37% | inhibition in vivo at 20 mg/kg (Kunming mice [2]): 66%

CCC(c1ccccc1)N1CCN(CC(=O)c2ccccc2)CC1 (centres unmarked) [IV-61, N^1-(1-phenylpropyl)-N^4-phenacyl piperazine]
inhibition in vivo at 20 mg/kg (Kunming mice [1]): 6% | inhibition in vivo at 20 mg/kg (Kunming mice [2]): 56%

O=C(CN1CCN(Cc2ccc([N+](=O)[O-])cc2)CC1)NCc1ccccc1 [IV-62, N^1-(4-nitrobenzyl)-N^4-[2-(benzylamino)-2-oxo-ethyl]piperazine]
inhibition in vivo at 20 mg/kg (Kunming mice [1]): 64% | inhibition in vivo at 20 mg/kg (Kunming mice [2]): 42%
